How the values were obtained:
[1] = tested on: A. fumigatus; conditions: A. fumigatus infected mice; orally by gavage; cited from earlier work
[2] = tested on: S. boydii; conditions: cited from earlier work
[3] = tested on: A. fumigatus 210; conditions: cited from earlier work
[4] = in vivo PK studies in cynomolgus monkeys (single dose IV and p.o.); conditions: both sexes, cynomolgus monkey, 10 mg/kg
Procedure: Various formulations were investigated in in vivo PK studies in cynomolgus monkeys to determine the optimal oral formulation for dosing to animals and humans.
The compound of Formula I was administered to male and female cynomolgus monkeys by IV at a dosage of 10 mg/kg. The IV formulation was as described in Example 3. […] The AUCIV value was subsequently used to calculate the bioavailability of example oral formulations as described above.
Studies were conducted using Formulation 2 as described above. The compound of Formula I was administered p.o. to male and female cynomolgus monkeys at a dose level of 10 mg/kg. (dose volume 5 mL/kg). 2 mL blood samples were obtained 5 minutes via femoral puncture (vein/artery) into commercially available K2EDTA tubes using 23G needles coupled to a suitable syringe. Samples were taken 0.25, 0.5, 1, 2, 4, 8, 12 and 24 hours after administration of the formulation. Blood samples were kept on ice until centrifugation at 1600×g (10 mins, ca. 5° C.) to separate plasma. Analysis to calculate plasma concentration of the compound of Formula I was conducted by LC-MS/MS.
Studies were conducted using Formulation 5 as described in Example 3. […]

[5] = tested on: S. prolificans 6322; conditions: cited from earlier work
[6] = in vivo PK studies in rats (single dose IV and p.o.); conditions: rat, 10 mg/kg
Procedure: Various formulations were investigated in in vivo PK studies in rats to determine the optimal oral formulation for dosing to animals and humans.
The compound of Formula I was administered to rats by IV at a dosage of 10 mg/kg. The vehicle comprised 15% hydroxypropyl beta cyclodextrin (Kelptose HPB parenteral grade), 5% DMSO and water for injection. The formulation was filtered using a ≤0.22 μm polyethersulfone (PES) membrane filter prior to use. The dose volume administered was 5 mL/kg. 0.2 mL blood samples from the sublingal vein under isoflurane anaesthesia were obtained 5 minutes after IV administration and stored in EDTA. Plasma was separated by centrifugation (1500×g, 10 mins, ca. 4° C.) and was frozen at −70° C. prior to analysis. Analysis to calculate plasma concentration of the compound of Formula I was conducted by LC-MS/MS. […] The AUCIV value was subsequently used to calculate the bioavailability of example oral formulations as described above.
A crystalline sample of the compound of Formula I was formulated in PEG300. The formulation was dosed p.o. (gavage) to rats at 10 mg/kg (dose volume=5 mL/kg). 0.2 mL blood samples from the sublingal vein under isoflurane anaesthesia were obtained 15 minutes after oral administration and stored in EDTA. Samples were then taken 0.5, 1, 2, 4, 8, 12 and 24 hours post-dose.

[7] = tested on: S. prolifican 451; conditions: cited from earlier work
[8] = tested on: Lomentospora prolificans FMR 3569; conditions: mice infected with Lomentospora prolificans FMR 3569; relative to voriconazole; orally by gavage; cited from earlier work
[9] = tested on: S. prolifican 201; conditions: cited from earlier work
[10] = tested on: S. prolifican 8353; conditions: cited from earlier work
[11] = tested on: S. apiospermum 8353; conditions: cited from earlier work
[12] = tested on: S. prolifican 15848; conditions: cited from earlier work
[13] = tested on: A. flavus; conditions: cited from earlier work
[14] = tested on: S. prolificans 206; conditions: cited from earlier work
[15] = tested on: A. terreus 49; conditions: cited from earlier work
[16] = tested on: A. terreus; conditions: cited from earlier work
[17] = tested on: invasive aspergillosis; conditions: mouse; orally by gavage; not the formulations of the present invention; cited from earlier work
[18] = tested on: S. prolifican 15849; conditions: cited from earlier work
[19] = tested on: S. prolifican 1121; conditions: cited from earlier work
[20] = tested on: S. dehoogii; conditions: cited from earlier work
[21] = tested on: S. apiospermum 13486; conditions: cited from earlier work
[22] = tested on: A. fumigatus; conditions: cited from earlier work
[23] = tested on: S. apiospermum 451; conditions: cited from earlier work
[24] = tested on: S. apiospermum 1124; conditions: cited from earlier work
[25] = tested on: S. prolifican 4883; conditions: cited from earlier work
[26] = tested on: S. prolifican 7935; conditions: cited from earlier work
[27] = tested on: S. aurantiacum; conditions: cited from earlier work
[28] = tested on: S. apiospermum 7935; conditions: cited from earlier work
[29] = tested on: S. prolificans 18389; conditions: cited from earlier work
[30] = tested on: A. niger; conditions: cited from earlier work
[31] = tested on: S. apiospermum 4883; conditions: cited from earlier work
[32] = tested on: S. prolifican 13486; conditions: cited from earlier work
[33] = tested on: S. apiospermum 15848; conditions: cited from earlier work

Cc1cc(-c2ccccc2)c(C(=O)C(=O)Nc2ccc(N3CCN(c4ncc(F)cn4)CC3)cc2)n1C [compound of Formula I, 2-(1,5-dimethyl-3-phenyl-1H-pyrrol-2-yl)-N-(4-(4-(5-fluoropyrimidin-2-yl)piperazin-1-yl)phenyl)-2-oxoacetamide]
A (MIC ≤ 0.005): MIC band (RPMI medium) [15] | MIC band (RPMI medium) [16] | MIC band (RPMI medium) [19] | MIC band (RPMI medium) [24]
18000 ng·h/mL: AUC [4]
E (0.04 < MIC ≤ 0.06): MIC band (RPMI medium) [18]
C (0.01 < MIC ≤ 0.02): MIC band (RPMI medium) [3] | MIC band (RPMI medium) [22] | MIC band (RPMI medium) [25] | MIC band (RPMI medium) [26] | MIC band (RPMI medium) [28] | MIC band (RPMI medium) [29] | MIC band (RPMI medium) [30] | MIC band (RPMI medium) [31]
reduce galactomannan indices: galactomannan indices [1]
increase survival: survival [8]
B (0.005 < MIC ≤ 0.01): MIC band (RPMI medium) [7] | MIC band (RPMI medium) [10] | MIC band (RPMI medium) [11] | MIC band (RPMI medium) [13] | MIC band (RPMI medium) [23]
good antifungal activity: antifungal activity [2] | antifungal activity [20] | antifungal activity [27]
excellent efficacy: efficacy in murine models of invasive aspergillosis [17]
D (0.02 < MIC ≤ 0.04): MIC band (RPMI medium) [5] | MIC band (RPMI medium) [9] | MIC band (RPMI medium) [12] | MIC band (RPMI medium) [14] | MIC band (RPMI medium) [21] | MIC band (RPMI medium) [32] | MIC band (RPMI medium) [33]
13500 ng·h/mL: AUC [6]
